Laboratory results: patent publication US10604554B2, “Double-acylated GLP-1 derivatives” (Novo Nordisk A/S, priority 2012, dated 2020)

What was measured:
[1] = test system: Landrace Yorkshire Duroc (LYD) pigs; assay: Pharmacodynamic (PD) study in pigs, food intake; format: in vivo, pig; conditions: single s.c. dose 3.0 nmol/kg; for PD in pig, food intake (% of vehicle) for hours 0-24: 0-24 h; for PD in pig, food intake (% of vehicle) for hours 24-48: 24-48 h
Description: The purpose of this experiment was to investigate the effect of a couple of Example compounds on food intake in pigs. This was done in a pharmacodynamic (PD) study as described below, in which food intake was measured from 1 to 4 days after administration of a single dose of the GLP-1 derivative, as compared to a vehicle-treated control group.
Female Landrace Yorkshire Duroc (LYD) pigs, approximately 3 months of age, weighing approximately 30-35 kg were used (n=3-4 per group). The animals were housed in a group for approximately 1 week during acclimatisation to the animal facilities. During the experimental period the animals were placed in individual pens at least 2 days before dosing and during the entire experiment for measurement of individual food intake. The animals were fed ad libitum with pig fodder (Svinefoder Danish Top) at all times both during the acclimatisation and the experimental period. Food intake was monitored on line by logging the weight of fodder every 15 minutes. The system used was Mpigwin (Ellegaard Systems, Faaborg, Denmark).
The phosphate buffer serves as vehicle. Animals are dosed with a single subcutaneous dose of the GLP-1 derivative or vehicle (dose volume 0.025 ml/kg) on the morning of day 1, and food intake is measured for 1 day after dosing. On the last day of each study, 1-4 days after dosing, a blood sample for measurement of plasma exposure of the GLP-1 derivative is taken from the heart in anaesthetised animals. The animals are thereafter euthanised with an intra-cardial overdose of pentobarbitone.
Food intake is calculated as mean±SEM food intake in 24 h intervals (0-24 h, 24-48 h, and 48-72 h). In Table 6 below the food intake is indicated as percentage of the food intake of the vehicle group in the same time interval (dosage 3.0 nmol/kg).
Statistical comparisons of the food intake in the 24 h intervals in the vehicle vs. GLP-1 derivative group are done using two-way-ANOVA repeated measures, followed by Bonferroni post-test.

in vivo [2] = conditions: male, Sprague Dawley, rat, iv
Description: The purpose of this Example is to investigate half-life in vivo in rat.
In vivo pharmacokinetic studies in rats were performed with the GLP-1 derivatives of a number of the Example compounds, as described in the following.
Male Sprague Dawley rats of same age with a body weight of approximately 400 g were obtained from Taconic (Denmark) and assigned to the treatments by simple randomisation on body weight, approximately 4 rats per group.
The GLP-1 derivatives (approximately 6 nmol/ml) were dissolved in 50 mM sodium phosphate, 145 mM sodium chloride, 0.05% tween 80, pH 7.4. Intravenous injections (1.0 ml/kg) of the compounds were given with a syringe in the tail vein of conscious rats. Blood was sampled from vena sublingualis for 5 days post dosing. Blood samples (200 μl) were collected in EDTA buffer (8 mM) and then centrifuged at 4° C. and 10000 G for 5 minutes. Plasma samples were kept at −20° C. until analyzed for plasma concentration of the respective GLP-1 compound.
The donor beads were coated with streptavidin, while acceptor beads were conjugated with a monoclonal antibody recognising a mid-/C-terminal epitope of the peptide. Another monoclonal antibody, specific for the N-terminus, was biotinylated. The three reactants were combined with the analyte and formed a two-sited immuno-complex. Illumination of the complex released singlet oxygen atoms from the donor beads, which were channeled into the acceptor beads and triggered chemiluminescence which was measured in an Envision plate reader. The amount of light was proportional to the concentration of the compound.
Plasma concentration-time profiles were analyzed using Phoenix WinNonLin ver. 6.2, Pharsight Inc., Mountain View, Calif., USA), and the half-life (T1/2) calculated using individual plasma concentration-time profiles from each animal.

human GLP-1 receptor = biological target: T1, human GLP-1 receptor (Homo sapiens, UniProt P43220); assay: GLP-1 receptor binding (SPA, displacement of 125I-GLP-1); conditions: for IC50: 0.001% HSA (low albumin), read-out: Receptor binding affinity IC50 (low HSA); for IC50 (high HSA): Receptor binding affinity IC50 (high HSA), 2.0% HSA (high albumin), heading: Receptor binding affinity IC50
T1 construct: expressed in transfected cells; host or cells: BHK cells, clone FCW467-12A/KZ10-1 (parent line BHKTS13), further transfected with CRE luciferase
T1 sequence (P43220 24-463): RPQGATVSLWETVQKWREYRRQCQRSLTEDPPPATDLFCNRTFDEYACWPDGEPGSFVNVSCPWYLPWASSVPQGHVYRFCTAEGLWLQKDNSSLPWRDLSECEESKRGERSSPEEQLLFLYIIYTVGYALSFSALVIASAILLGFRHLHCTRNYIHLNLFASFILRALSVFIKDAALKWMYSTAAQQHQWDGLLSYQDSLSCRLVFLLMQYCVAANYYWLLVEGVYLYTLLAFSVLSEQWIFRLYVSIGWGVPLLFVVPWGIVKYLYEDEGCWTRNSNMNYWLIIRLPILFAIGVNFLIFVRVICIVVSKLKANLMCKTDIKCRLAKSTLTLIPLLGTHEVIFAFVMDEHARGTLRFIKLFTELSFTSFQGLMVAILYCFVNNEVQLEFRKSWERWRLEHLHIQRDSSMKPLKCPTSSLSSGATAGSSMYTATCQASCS
How it was run: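 Tracer [125I]-GLP-1(7-36)NH2 at 0.06 nM final competed on hamster stably transfected cell membranes captured by WGA SPA beads; 120 min, 30 °C, scintillation count.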

in vivo [3] = conditions: male, Göttingen, minipig, iv

Row | half-life (in vivo [2]) [h] | IC50 (human GLP-1 receptor) [nM] | half-life (in vivo [3]) [h] | IC50 (high HSA) (human GLP-1 receptor) [nM] | SMILES | PD in pig, food intake (% of vehicle) for hours 0-24 [1] | PD in pig, food intake (% of vehicle) for hours 24-48 [1]
1 | 28 | 0.84 | 97 | – | CC[C@H](C)[C@H](NC(=O)[C@H](Cc1ccccc1)NC(=O)[C@H](CCC(=O)O)NC(=O)[C@H](CCCCNC(=O)[C@@H](N)CCCCNC(=O)COCCOCCNC(=O)COCCOCCNC(=O)CC[C@H](NC(=O)CCCCCCCCCCCCCCC(=O)O)C(=O)O)NC(=O)[C@H](C)NC(=O)[C@H](C)NC(=O)[C@H](CCC(N)=O)NC(=O)CNC(=O)[C@H](CCC(=O)O)NC(=O)[C@H](CC(C)C)NC(=O)[C@H](Cc1ccc(O)cc1)NC(=O)[C@H](CO)NC(=O)[C@H](CO)NC(=O)[C@@H](NC(=O)[C@H](CC(=O)O)NC(=O)[C@H](CO)NC(=O)[C@@H](NC(=O)[C@H](Cc1ccccc1)NC(=O)[C@@H](NC(=O)CNC(=O)[C@H](CCC(=O)O)NC(=O)C(C)(C)NC(=O)[C@@H](N)Cc1c[nH]cn1)[C@@H](C)O)[C@@H](C)O)C(C)C)C(=O)N[C@@H](C)C(=O)N[C@@H](Cc1c[nH]c2ccccc12)C(=O)N[C@@H](CC(C)C)C(=O)N[C@H](C(=O)N[C@@H](CCCNC(=N)N)C(=O)NCC(=O)N[C@@H](CCCNC(=N)N)C(=O)N[C@@H](CCCCNC(=O)[C@@H](N)CCCCNC(=O)COCCOCCNC(=O)COCCOCCNC(=O)CC[C@H](NC(=O)CCCCCCCCCCCCCCC(=O)O)C(=O)O)C(=O)O)C(C)C [Example 10, N^ε26-[(2S)-2-amino-6-[[2-[2-[2-[[2-[2-[2-[[(4S)-4-carboxy-4-(15-carboxypentadecanoylamino)butanoyl]amino]ethoxy]ethoxy]acetyl]amino]ethoxy]ethoxy]acetyl]amino]hexanoyl], N^ε37-[(2S)-2-amino-6-[[2-[2-[2-[[2-[2-[2-[[(4S)-4-carboxy-4-(15-carboxypentadecanoylamino)butanoyl]amino]ethoxy]ethoxy]acetyl]amino]ethoxy]ethoxy]acetyl]amino]hexanoyl]-[Aib^8,Arg^34,Lys^37]-GLP-1-(7-37)-peptide] | 105 % of vehicle | 104 % of vehicle
2 | 31 | 0.76 | 93 | 545 | CC[C@H](C)[C@H](NC(=O)[C@H](Cc1ccccc1)NC(=O)[C@H](CCC(=O)O)NC(=O)[C@H](CCCCNC(=O)[C@@H](N)CCCCNC(=O)CC[C@H](NC(=O)CC[C@H](NC(=O)CC[C@H](NC(=O)CCCCCCCCCCCCCCC(=O)O)C(=O)O)C(=O)O)C(=O)O)NC(=O)[C@H](C)NC(=O)[C@H](C)NC(=O)[C@H](CCC(N)=O)NC(=O)CNC(=O)[C@H](CCC(=O)O)NC(=O)[C@H](CC(C)C)NC(=O)[C@H](Cc1ccc(O)cc1)NC(=O)[C@H](CO)NC(=O)[C@H](CO)NC(=O)[C@@H](NC(=O)[C@H](CC(=O)O)NC(=O)[C@H](CO)NC(=O)[C@@H](NC(=O)[C@H](Cc1ccccc1)NC(=O)[C@@H](NC(=O)CNC(=O)[C@H](CCC(=O)O)NC(=O)C(C)(C)NC(=O)[C@@H](N)Cc1c[nH]cn1)[C@@H](C)O)[C@@H](C)O)C(C)C)C(=O)N[C@@H](C)C(=O)N[C@@H](Cc1c[nH]c2ccccc12)C(=O)N[C@@H](CC(C)C)C(=O)N[C@H](C(=O)N[C@@H](CCCNC(=N)N)C(=O)NCC(=O)N[C@@H](CCCNC(=N)N)C(=O)N[C@@H](CCCCNC(=O)[C@@H](N)CCCCNC(=O)CC[C@H](NC(=O)CC[C@H](NC(=O)CC[C@H](NC(=O)CCCCCCCCCCCCCCC(=O)O)C(=O)O)C(=O)O)C(=O)O)C(=O)O)C(C)C [Example 13, N^ε26-[(2S)-2-amino-6-[[(4S)-4-carboxy-4-[[(4S)-4-carboxy-4-[[(4S)-4-carboxy-4-(15-carboxypentadecanoylamino)butanoyl]amino]butanoyl]amino]butanoyl]amino]hexanoyl], N^ε37-[(2S)-2-amino-6-[[(4S)-4-carboxy-4-[[(4S)-4-carboxy-4-[[(4S)-4-carboxy-4-(15-carboxypentadecanoylamino)butanoyl]amino]butanoyl]amino]butanoyl]amino]hexanoyl]-[Aib^8,Arg^34,Lys^37]-GLP-1-(7-37)-peptide] | – | –
3 | 13 | 0.77 | 56 | 147 | CC[C@H](C)[C@H](NC(=O)[C@H](Cc1ccccc1)NC(=O)[C@H](CCC(=O)O)NC(=O)[C@H](CCCCNC(=O)[C@@H](N)CCCCNC(=O)COCCOCCNC(=O)COCCOCCNC(=O)CC[C@H](NC(=O)CCCCCCCCCCCCC(=O)O)C(=O)O)NC(=O)[C@H](C)NC(=O)[C@H](C)NC(=O)[C@H](CCC(N)=O)NC(=O)CNC(=O)[C@H](CCC(=O)O)NC(=O)[C@H](CC(C)C)NC(=O)[C@H](Cc1ccc(O)cc1)NC(=O)[C@H](CO)NC(=O)[C@H](CO)NC(=O)[C@@H](NC(=O)[C@H](CC(=O)O)NC(=O)[C@H](CO)NC(=O)[C@@H](NC(=O)[C@H](Cc1ccccc1)NC(=O)[C@@H](NC(=O)CNC(=O)[C@H](CCC(=O)O)NC(=O)C(C)(C)NC(=O)[C@@H](N)Cc1c[nH]cn1)[C@@H](C)O)[C@@H](C)O)C(C)C)C(=O)N[C@@H](C)C(=O)N[C@@H](Cc1c[nH]c2ccccc12)C(=O)N[C@@H](CC(C)C)C(=O)N[C@H](C(=O)N[C@@H](CCCNC(=N)N)C(=O)NCC(=O)N[C@@H](CCCNC(=N)N)C(=O)N[C@@H](CCCCNC(=O)[C@@H](N)CCCCNC(=O)COCCOCCNC(=O)COCCOCCNC(=O)CC[C@H](NC(=O)CCCCCCCCCCCCC(=O)O)C(=O)O)C(=O)O)C(C)C [Example 19, N^ε26-[(2S)-2-amino-6-[[2-[2-[2-[[2-[2-[2-[[(4S)-4-carboxy-4-(13-carboxytridecanoylamino)butanoyl]amino]ethoxy]ethoxy]acetyl]amino]ethoxy]ethoxy]acetyl]amino]hexanoyl], N^ε37-[(2S)-2-amino-6-[[2-[2-[2-[[2-[2-[2-[[(4S)-4-carboxy-4-(13-carboxytridecanoylamino)butanoyl]amino]ethoxy]ethoxy]acetyl]amino]ethoxy]ethoxy]acetyl]amino]hexanoyl]-[Aib^8,Arg^34,Lys^37]-GLP-1-(7-37)-peptide] | 52 % of vehicle | 64 % of vehicle
